Data from patent US20030181426A1, “Compositions and methods for treating pain using cyclooxygenase-1 inhibitors” (priority 2002, published 2003).
Read-outs that look alike come from different tables or passages of the source.

Key:
[1] = system: phosphorylated CREB; test: pCREB immunoreactive cells in dorsal horn of PSNL rats; format: in vivo; details: for increased number of pCREB-IR cells in the ipsilateral dorsal horn: 5 days after injection, three weeks after PSNL
Procedure: Quantitative analysis of the pCREB expression in the dorsal horn of PSNL rats receiving either saline or ketorolac intraplantar injection was conducted. […] However, no significant difference in the mean optical density in a fixed area occupied by pCREB-IR cells was detected between both sides of the dorsal horn.

[2] = system: locomotor activity after laparotomy; test: Post-laparotomy locomotor activity model; format: in vivo, rats
[3] = system: COX-1 and COX-2; details: as known in the art / Warner, 1999; cited from earlier work
[4] = system: tactile allodynia; test: L5 and L6 spinal nerve ligation (SNL) tactile allodynia, lidocaine and ketorolac; format: in vivo, male Sprague-Dawley rats
[5] = system: PGE2; test: PGE2 concentration in cerebrospinal fluid of volunteers; format: in vivo, humans; details: for Pre-injection PGE2: CSF before injection; for Post-injection PGE2: CSF 60 min after injection
[6] = system: PGE2; test: CSF PGE2 concentrations in conscious dogs after i.t. ketorolac; format: in vivo; details: within 30 min of injection
[7] = system: chronic pain; test: Intrathecal ketorolac in patients with chronic pain receiving spinal morphine (VAS); format: in vivo, humans
Excerpt: This study focused on safety, but efficacy measures were obtained by having patients rate their pain using a visual analog scale (VAS) before, and at intervals after, intrathecal injection of ketorolac. Data are available from the first 6 patients in this open label study.

[8] = system: tactile hypersensitivity after paw incision; test: Brennan model: tactile hypersensitivity after paw incision, von Frey withdrawal threshold; format: in vivo, male Sprague-Dawley rats
[9] = system: tactile allodynia; test: Partial sciatic nerve ligation (PSNL) tactile allodynia, i.t. COX inhibitors; format: in vivo, Sprague-Dawley rats
Excerpt: A Sprague-Dawley rats (Harlan Industries, Indianapolis, Ind., USA), weighing 200-250 g, were used in this study. All animal surgical procedures were in conformity with the Wake Forest University guidelines on the ethical use of animals and studies were approved by the Animal Care and Use Committee. Animals were implanted with intrathecal catheters according to the method described previously. (Yaksh TL, 1976). Briefly, under halothane anesthesia (2-4% in oxygen/air), animals were placed prone in a stereotaxic frame and a small incision was made at the back of the neck. A small puncture was made in the atlanto-occipital membrane of the cistema magna and a polyethylene catheter (PE-10, 7.5 cm) was inserted so that the caudal tip reached the lumbar enlargement of the spinal cord. The rostral end of the catheter was exteriorized at the top of the head and the wound was closed with sutures. Animals were allowed 4-5 days to recover from the surgery and those displaying signs of motor dysfunction (fore limb or hind limb paralysis) were excluded from the study. Rats were anesthetized with 2-4% halothane in oxygen-air. For partial […] nerve ligation (PSNL), the left sciatic nerve was exposed at the high thigh level and one-third to one-half of the nerve was ligated with silk suture (size 6) as previously described (Shir et al., 1991). Animals were maintained after surgery with ad libitum food and water on a 12-h light/dark cycle. All rats were allowed to recover for 4 weeks after PSNL. By then, tactile allodynia was well established in the ipsilateral hindpaw.

[10] = not given; remark: listed apart in the source
[11] = system: tactile allodynia; test: PSNL tactile allodynia, local and systemic ketorolac; format: in vivo, rats; details: for duration of reversal of tactile allodynia: disappeared by day 5; for tactile allodynia in the ipsilateral paw: three hours after injection
Procedure: PSNL was performed as described above. […] Three rats in each group were also injected with normal saline to serve as controls. For all injections, rats were briefly anaesthetized by inhalation of 2-4% halothane/96% oxygen and air. Perineural injection was performed as previously described ([…] al. 1995). Briefly, the rat was held in lateral recumbency with the limb to be injected forming a right angle with a longitudinal axis of the trunk. The greater trochanter and ischial tuberosity were localized by palpation. On an imaginary line from the greater trochanter to the ischial tuberosity, about one third of the distance caudal to the greater trochanter, a 25-gauge injection needle was advanced from dorsolateral direction at a 45° angle until the tip encountered the ischium. A total volume of 0.2 mL was injected in a fanning motion along the path of the sciatic nerve.

[12] = Ketorolac concentration in cerebrospinal fluid (HPLC); format: in vivo, humans; details: for concentration at 60 min: human, other: intrathecal (lumbar puncture), lumbar CSF 60 min after injection
Procedure: Escalation to the next dose was made only after review of side effects occurring at lower doses, with pre-defined stopping criteria. CSF samples were quantitatively extracted by C-18 reverse phase cartridge chromatography and eluted with acetonitrile. Concentrated eluates were injected on to a HPLC equipped with a Phenomenex 'Prodigy' C-18 reverse phase column (250 mm×4.6 mm). Peaks were detected with an Agilent Model 1100 UV detector set at a wavelength of 313. All unknowns, standards and controls contained an equal quantity of internal standard, 200 ng of indoprofen.

[13] = intraplantar injection, vs saline injected rats, P<0.01
[14] = i.t. 50 μg, compared to i.t. saline control
[15] = intrathecal ketorolac 50 μg, 1 week after 200 μg intrathecal lidocaine
[16] = intrathecal ketorolac 50 μg, 1 week after 300 μg intrathecal lidocaine

Compound: O=C(c1ccccc1)c1ccc2n1CCC2C(=O)O (stereo not drawn) [ketorolac]
- increased number of pCREB-IR cells in the ipsilateral dorsal horn ([1]; intraplantar injection): dramatically reduced
- mean optical density of pCREB-IR cells, contralateral dorsal horn [1, 13]: significantly decreased
- mean optical density of pCREB-IR cells, ipsilateral dorsal horn [1, 13]: significantly decreased
- number of pCREB-IR cells in the contralateral dorsal horn ([1]; local injection, compared with saline injected PSNL rats): also decreased
- increased number of pCREB-IR cells in the ipsilateral dorsal horn ([1]; peri-neural injection): dramatically reduced
- systemic toxicity at large doses (dog, in vivo): gastrointestinal ulceration and bleeding
- spinal neurotoxicity (i.t., dogs): no evidence for spinal neurotoxicity
- ambulatory locomotor activity after laparotomy [2, 14]: increased
- vertical locomotor activity after laparotomy [2, 14]: increased
- locomotor activity in the absence of surgery ([2]; ketorolac alone): no effect
- effect on morphine's effect on ambulatory activity ([2]; systemic ketorolac 5 mg/kg i.p. with morphine): potentiate morphine's effect
- ambulatory activity after laparotomy ([2]; systemic, 5 mg/kg i.p.): failed to affect ambulatory activity
- preference in inhibition of COX-1 and COX-2 [3]: one of the most selective COX-1 antagonists
- tactile allodynia caused by SNL ([4]; intrathecal ketorolac 50 μg alone): failed to attenuate
- antiallodynic effect ([4]; intrathecal ketorolac 50 μg, 1 week after 100 μg intrathecal lidocaine): failed to exert any antiallodynic effect
- duration of reversal of tactile allodynia [4, 15]: 4 h
- tactile allodynia caused by SNL [4, 15]: reversed tactile allodynia
- duration of reversal of tactile allodynia [4, 16]: 4 h
- tactile allodynia caused by SNL [4, 16]: reversed tactile allodynia
- SNL-induced tactile allodynia ([4]; intrathecal ketorolac 50 μg, 1 week following prior intrathecal ketorolac 50 μg): failed to alleviate
- SNL-induced tactile allodynia ([4]; intrathecal ketorolac 100 μg alone): failed to alleviate
- SNL-induced tactile allodynia ([4]; intrathecal ketorolac 100 μg, 1 week after intrathecal lidocaine): exhibited the antiallodynic effect
- antiallodynic effect ([4]; one day after intrathecal ketorolac, rats previously given 200 and 300 μg lidocaine): disappeared
- Pre-injection PGE2 ([5]; 0.25 mg dose group): 4.7 ± 0.7 pg/mL
- Post-injection PGE2 ([5]; 0.25 mg i.t.): 6.0 ± 0.9 pg/mL
- Pre-injection PGE2 ([5]; 0.50 mg dose group): 5.6 ± 1.9 pg/mL
- Post-injection PGE2 ([5]; 0.50 mg i.t.): 3.8 ± 0.6 pg/mL
- Pre-injection PGE2 ([5]; 1.0 mg dose group): 4.1 ± 0.9 pg/mL
- Post-injection PGE2 ([5]; 1.0 mg i.t.): 8.5 ± 1.7 pg/mL
- Pre-injection PGE2 ([5]; 2.0 mg dose group): 4.9 ± 0.7 pg/mL
- Post-injection PGE2 ([5]; 2.0 mg i.t.): 7.5 ± 1.7 pg/mL
- CSF PGE2 concentration 60 min after ketorolac injection ([5]; entire study population): 6.1 ± 0.6 pg/mL
- CSF PGE2 concentration prior to ketorolac injection ([5]; entire study population): 4.9 ± 0.5 pg/mL
- effect on CSF PGE2 concentrations ([5]; entire study population, 60 min after injection): not affected
- reduction of CSF PGE2 concentrations [6]: > 90%
- VAS pain ([7]; beginning 1 hour after injection and lasting throughout the remaining 3 hours of observation, n=6): significantly reduced
- adverse events ([7]; i.t. 0.5 mg (5 patients) or 1.0 mg (1 patient), patients on spinal morphine): no significant adverse events
- VAS pain after injection ([7]; n=6): 3
- VAS pain prior to injection ([7]; n=6): 5
- withdrawal threshold (von Frey) after paw incision ([8]; i.t. 50 μg given on the first postoperative day, established tactile hypersensitivity, within 30 min): increased withdrawal threshold
- withdrawal threshold (von Frey) after paw incision ([8]; i.t. 50 μg, pretreatment 15 min before surgery, compared to saline control 2 hr later and on the next day): increased withdrawal threshold
- duration of reversal of withdrawal threshold ([9]; 4 weeks after PSNL): 6 days
- withdrawal threshold, ipsilateral hindpaw ([9]; 4 weeks after PSNL, two hours following injection): significantly reversed to pre-lesion baseline
- withdrawal threshold, ipsilateral hindpaw ([9]; eight days after injection): returned to the pre-injection level
- spinal neurotoxicity ([10]; i.t., rats): no evidence for spinal neurotoxicity
- systemic toxicity at large doses ([10]; rat, in vivo): gastrointestinal ulceration and bleeding
- duration of reversal of tactile allodynia ([11]; 0.2 mL 0.5% intramuscular): 3 days
- tactile allodynia in the ipsilateral paw ([11]; 0.2 mL 0.5% intramuscular): reversed
- duration of reversal of tactile allodynia ([11]; 0.2 mL 0.5% intraperitoneal): 3 days
- tactile allodynia in the ipsilateral paw ([11]; 0.2 mL 0.5% intraperitoneal): reversed
- tactile allodynia in the ipsilateral hindpaw ([11]; 0.2 mL 0.5% intraplantar, 3 weeks after PSNL, three hours to 5 days): reversed the tactile allodynia
- antiallodynic effect ([11]; 0.2 mL 0.5% peri-neural, 3 weeks after PSNL): slow onset of antiallodynic effect that was observed only 3 and 5 days after injection
- dose dependence of lumbar CSF drug concentration ([12]; 60 min after injection): apparent plateau at the 1 and 2 mg doses
- concentration at 60 min ([12]; 0.5 mg, 0.50 mg i.t.): 13400 ± 1200 ng/mL
- concentration at 60 min ([12]; 0.25 mg i.t.): 4600 ± 200 ng/mL
- concentration at 60 min ([12]; 1.0 mg i.t.): 30700 ± 8800 ng/mL
- concentration at 60 min ([12]; 2.0 mg i.t.): 33500 ± 5200 ng/mL
